The data set can be described thus: Equilibrium aqueous solubility under pH controlled conditions. The format is physicochemical.

Read-outs that look alike come from different tables or passages of the source. Bounds are passed on as bounds.

In the case of `COc1cc2c(N3CCN(C(=O)Nc4ccc(OC(C)C)cc4)CC3)ncnc2cc1OCCCN1CCCCC1.C[C@H](O)C(=O)O` [Form 1, 4-[6-methoxy-7-(3-piperidin-1-yl-propoxy)quinazolin-4-yl]piperazine-1-carboxylic acid(4-isopropoxyphenyl)-amide (L)-lactate Form 1], the solubility is above 450 mg/mL (aqueous buffer, thermodynamic from solid, in water, physiologically relevant pH's, read-out: solubility); 496 mg/mL (pH 3.51, aqueous buffer, thermodynamic from solid, equilibrium aqueous, pH 3.51, read-out: Solubility); 465 mg/mL (pH 3.97, aqueous buffer, thermodynamic from solid, equilibrium aqueous, pH 3.97, read-out: Solubility); 511 mg/mL (pH 4.23, aqueous buffer, thermodynamic from solid, equilibrium aqueous, pH 4.23, read-out: Solubility); 458 mg/mL (pH 5.96, aqueous buffer, thermodynamic from solid, equilibrium aqueous, pH 5.96, read-out: Solubility).

As to `COc1cc2c(N3CCN(C(=O)Nc4ccc(OC(C)C)cc4)CC3)ncnc2cc1OCCCN1CCCCC1.C[C@H](O)C(=O)O` [Form 4, 4-[6-methoxy-7-(3-piperidin-1-yl-propoxy)quinazolin-4-yl]piperazine-1-carboxylic acid(4-isopropoxyphenyl)-amide (L)-lactate Form 4], the solubility result (in water, physiologically relevant pH's) is “greater than 325 mg/mL”; the solubility (pH 3.65, aqueous buffer, thermodynamic from solid, equilibrium aqueous, pH 3.65, read-out: Solubility) is 359 mg/mL; the solubility (pH 5.85, aqueous buffer, thermodynamic from solid, equilibrium aqueous, pH 5.85, read-out: Solubility) was found to be 412 mg/mL; the solubility (pH 6.03, aqueous buffer, thermodynamic from solid, equilibrium aqueous, pH 6.03, read-out: Solubility) came to 327 mg/mL.

For `COc1cc2c(N3CCN(C(=O)Nc4ccc(OC(C)C)cc4)CC3)ncnc2cc1OCCCN1CCCCC1` [compound of formula (II), 4-[6-methoxy-7-(3-piperidin-1-yl-propoxy)quinazolin-4-yl]piperazine-1-carboxylic acid(4-isopropoxyphenyl)-amide], the solubility (in water, pH 6.95, read-out: solubility) was around 1.24 mg/mL.

Source of the values: patent US20100273808A1 (Millennium Pharmaceticals, Inc., priority 2008, published 2010).
